We go through 10 molecules from patent publication US20090186761A1, “Use of bio-derived surfactants for mitigating damage to plants from pests” (Cleareso, LLC, priority 2008, published 2009).

The subject of data set [1] is Meloidognye hapla. The settings on record: cited from earlier work; for kill of second stage juveniles: 50 ppm, 24 hours; for toxicity to nematodes: in vitro.
Data set [2] has as its system root weevil, Diaprepes abbreviatus. Kind of data set: Root weevil larvae held 30 minutes in concentration series of compounds. The class given is in vivo. To be noted: for Mortality of larvae: 30 minutes immersion, five larvae; for toxicity to larvae as judged: 0.1 to 5.0%, judged at 24 hours from black residue and activity. The protocol:
The criterion for toxicity with these larvae is the lack of nipping behavior and its consequent black residue from blood loss and the lack of spontaneous movement.
Concentration Series. With the results from the time series above, larvae were held in different concentrations of STMB for 30 minutes. After 30 minutes, solutions were poured off and the trays wiped dry. Assessments were made at 24 or 48 hours with a few assessments at 72 hours dependent on effects. Treatments were: water or carbonated water as controls, and 0.1, 0.5, 1.0, 2.0, 3.0, 4.0 and 5.0% concentrations in either distilled water or carbonated water. Five larvae were used for each control and treatment. Pupae were not used in this assessment.
The use of carbonated water appeared not to increase the efficacy of this treatment. After 48 hours, there appeared to be no difference between 5% STMB in water and 5% STMB in carbonated water. […] In general, 48 hours should be enough for this assessment. Lack of toxicity or high toxicity should show in the first 24 hours.

Data set [3] is described as follows: Solubility of the test preparations in water (observations). The class given is physicochemical.
Data set [4] deals with M. javanica. The settings on record: tomato root galling; cited from earlier work.

As to `CCCCCCCCCC(=O)O` [decanoic acid], in data set [1], the “kill of second stage juveniles” value was “killed all”.
Turning to `CCCCCCCCCCC(=O)O` [undecanoic acid], the “kill of second stage juveniles” value in data set [1] was “killed all”.
Turning to “Polyoxyethylene 10 tridecylether [24938-91-8]”, the Mortality of larvae is given as 0 in data set [2] (0.1%, 24 hours); 0 in data set [2] (0.1%, 48 hours); 0 in data set [2] (0.1%, 72 hours); 2 in data set [2] (1.0%, 24 hours); 2 in data set [2] (1.0%, 48 hours); 2 in data set [2] (1.0%, 72 hours). For the same molecule, the Mortality of larvae in data set [2] (3.0%, 24 hours) is 0; in data set [2] (3.0%, 48 hours), 0; in data set [2] (3.0%, 72 hours) it was 0; in data set [2] (5.0%, 24 hours) it was 0; in data set [2] (5.0%, 48 hours), 3; in data set [2] (5.0%, 72 hours), 3.
Turning to `CCCCCCCC/C=C\CCCCCCCC(=O)[O-].[K+]` [potassium oleate], the toxicity to nematodes entry in data set [1] is listed as “relatively nontoxic”.
As to `COC(=O)CCC(=O)OC` [106-65-0, butanedioic acid, dimethyl ester], the Mortality of larvae in data set [2] (0.1%, 24 hours) came to 2; in data set [2] (1.0%, 24 hours) it was 2; in data set [2] (3.0%, 24 hours), 1; in data set [2] (5.0%, 24 hours) it was 1. The “toxicity to larvae as judged” value in data set [2] is recorded as “non-toxic”. For the same molecule, the solubility of preparation result is on record as “soluble” in data set [3] (0.1% in water), “just soluble” in data set [3] (1.0% in water), “not soluble” in data set [3] (3.0% in water) and “not soluble” in data set [3] (5.0% in water).
Consider `COC(=O)CCCCC(=O)OC` [627-93-0, Dimethyl hexanedioate], for which the Mortality of larvae is 2 in data set [2] (0.1%, 24 hours); 1 in data set [2] (1.0%, 24 hours); 2 in data set [2] (3.0%, 24 hours); 3 in data set [2] (5.0%, 24 hours). The “toxicity to larvae as judged” value in data set [2] is “non-toxic”. Also, the solubility of preparation entry is listed as “soluble” in data set [3] (0.1% in water), “not completely soluble” in data set [3] (1.0% in water), “not completely soluble” in data set [3] (3.0% in water) and “not completely soluble” in data set [3] (5.0% in water).
Take `CCCCCCCC/C=C\CCCCCCCC(=O)O` [Oleic acid]: the toxicity to nematodes entry in data set [1] is “relatively nontoxic”.
As for `CCCCCCCCC(=O)OC` [Methyl perlargonate], in data set [4], the “concentration producing reduced galling of plants” value is on record as 0.8 microliters/liter.
In the case of `COC(=O)CCCC(=O)OC` [1119-40-0, pentanedioic acid, dimethyl ester], the Mortality of larvae worked out at 3 in data set [2] (0.1%, 48 hours); 3 in data set [2] (0.1%, 72 hours); 1 in data set [2] (1.0%, 48 hours); 2 in data set [2] (1.0%, 72 hours); 0 in data set [2] (3.0%, 48 hours); 0 in data set [2] (3.0%, 72 hours). Further, the Mortality of larvae amounted to 1 in data set [2] (5.0%, 48 hours) and 2 in data set [2] (5.0%, 72 hours). The “survival of larvae after 30 minutes” value in data set [2] (at end of 30 minutes immersion) is listed as “All larvae were alive”.
For the molecule glycol pelargonate, the “concentration producing reduced galling of plants” value in data set [4] is on record as 6.4 microliters/liter.
